US20230097801A1, “METHODS OF INCREASING CELL PHAGOCYTOSIS” (National Health Research Institutes, priority 2021, published 2023)
“Also recorded” adds a separate entry of the source. Like-named read-outs stand apart in the source and are kept apart here.

Key:
CD47 [1] = experiment: Flow cytometry, anti-human CD47 2D3 control antibody binding on Raji cell surface; format: cell-based; conditions: Raji cells
Method: (§1) Antibody conjugates and extracellular domain of SIRPα used to analyze cell surface CD47 binding include anti-human CD47 CC2C6, 2D3, recombinant human SIRPα/CD172a Fc chimer protein, and anti-human IgG Fc. To determine inhibition of CD47 binding, cancer cells were treated with compounds of formula (I) at various concentrations for 4 days. Thereafter, the cells were washed with PBS containing 0.5% BSA (FACS buffer) followed by incubation with fluorochrome-labeled antibodies to human CD47 (i.e., CC2C6 and 2D3) at 1:50 dilution in FACS buffer for 30 minutes at 4° C. Compounds of formula (I) produced a dose-dependent inhibition of anti-CD47 CC2C6 antibody that recognized CD47 and SIRPα binding site on the tumor cell surface including B-cell lymphoma Raji cells, colon cancer cells DLD-1, and ovarian cancer SK-OV-3 cells (see FIGS. 1A, 1B, and 1C, respectively).

[2] = Plasma and tumor concentrations in Raji xenograft mice; format: in vivo; conditions: for concentration at 2 h: 2 hours after the last dose
Method: A pharmacokinetic study was conducted to evaluate plasma and tumor concentrations of Compound 34 using human B-cell lymphoma Raji xenograft tumors. One million Raji cells in culture medium and matrigel (1:1, v/v) were injected subcutaneously into the left flank region of each mouse. Treatments were initiated after randomization with inclusion of tumors at approximately 90 mm^3. A dosing vehicle for Compound 34 was prepared using 10% DMA: 40% PEG400: 50% (1% CMC) (v/v/v) and was dosed orally (p.o.) at 100 mg/kg once a day and 5 days a week (Q.D.*5). The mice were treated with either the vehicle control or Compound 34 for 3 weeks. They were sacrificed 2, 4, 8, or 24 hours after the last dose (n=4 per time point). Tumor and plasma were collected to determine concentrations of Compound 34.

CD47 [3] = experiment: Flow cytometry, anti-human CD47 CC2C6 antibody binding on Raji cell surface; format: cell-based
Method: Binding between CD47 and SIRPα was studied by measuring the level of CD47 binding using any suitable method. Flow cytometric analysis is useful to quantify the level of binding of CD47 to antibody CC2C6, which is then subjected to an immune-staining procedure using fluorochrome-conjugated secondary antibody followed by analysis of the immune-staining signal with a flow cytometry instrument to obtain the level of the CD47-CC2C6 binding. In another method, analysis of CD47 is performed using SIRPα-Fc formed from SIRPα fused with human IgG1, which is then subjected to an immune-staining procedure using fluorochrome-conjugated secondary antibody against human IgG1, followed by analysis of the immune-staining signal. SIRPα is expressed on the surface of a myeloid cell such as macrophage, monocyte, neutrophil, or dendritic cell. Alternatively, SIRPα is fused with human IgG1 to form a SIRPα-Fc recombinant protein. […] An anti-cancer agent (e.g., rituximab) can be used together with a compound of formula (I). Useful anti-cancer agents are described above including anti-PD-L1 antibodies, anti-CD20 antibodies, anti-HER2 antibodies, anti-EGFR antibodies, and anti-CD47 antibodies. Other suitable anti-cancer agents are chemotherapeutic agents such as doxorubicin, epirubicin, idarubicin, methotrexate, mitoxantrone, oxaliplatin, and cyclophosphamide.
Human B-cell lymphoma Raji cells were purchased from BCRC, Taiwan. Raji cells were maintained at 37° C. under 5% CO2 in RPMI-1640 medium (Hyclone, Marlborough, Mass.) supplemented with 10% fetal bovine serum (FBS) (SAFC, Sigma-Aldrich, St. Louis, Mo.) containing 2 mM L-glutamine (Hyclone, Marlborough, Mass.), 10 mM HEPES (Hyclone, Marlborough, Mass.) and 1 mM sodium pyruvate (Hyclone, Marlborough, Mass.).
as §1

Compound: O=C1NC[C@H](c2ccc(-c3csc(C(F)(F)F)c3)c(F)c2F)N1c1ccc2[nH]cnc2c1 [Compound 34]
- inhibition of binding of anti-human CD47 antibody 2D3 (in words) (CD47 [1]): not by anti-CD47 control antibody 2D3; also recorded: did not inhibit
- tumor concentration ([2]; 100 mg/kg p.o. QD*5 for 3 weeks, next 22 hours (2 to 24 hours after the last dose)): ≥ 27,507 ng/g tissue weight
- concentration at 2 h ([2]; mouse, plasma, oral, 100 mg/kg p.o. QD*5 for 3 weeks, read-out: plasma concentration): 18600 ng/mL
- concentration at 24 h ([2]; mouse, plasma, oral, 100 mg/kg p.o. QD*5 for 3 weeks, 24 hours after the last dose): 5360 ng/mL
- concentration at 2 h ([2]; mouse, tumor, oral, 100 mg/kg p.o. QD*5 for 3 weeks, read-out: tumor concentration): 29700 ng/g
- tumor concentrations versus plasma (in words) ([2]; within 24 hours post treatment): much higher than those in plasma
- IC50 (CD47 [3]; B-cell Lymphoma (Raji cells), 4 days treatment, read-out: IC50, inhibition of CC2C6 binding): 1100 nM
- inhibition of binding of anti-human CD47 antibody CC2C6 (in words) (CD47 [3]; Raji cells): specifically affected anti-CD47 CC2C6 antibody; also recorded: effectively inhibited
